The source of these data is ChEMBL document CHEMBL5375949, “The evolution of small molecule enzyme activators” (RSC Med Chem, 2023).

One test has as its system BT-474. The test can be described thus: Cytotoxicity against human BT-474 cells assessed as inhibition of cell growth incubated for 24 hrs by MTS assay. In kind it is functional, cell-based. To be noted: BT-474, 24 h. A general note: Tetrazolium assays rely on reduction of a dye to a coloured formazan, in cell work by metabolically active cells.
Test [1] has as its system MDA-MB-231. The test can be described thus: Cytotoxicity against human MDA-MB-231 cells assessed as inhibition of cell growth incubated for 24 hrs by MTS assay. It counts as functional, cell-based. The note with it: MDA-MB-231, 24 h.
In test [2] the target is Insulin-degrading enzyme (Homo sapiens) (UniProt P14735). The test can be described thus: Activation of IDE (unknown origin) using SP1 as substrate in presence of ATP by SpectraMax M5 multilabel plate reader analysis relative to control. To be noted: filed as activator.
Insulin-degrading enzyme (Homo sapiens), sequence (P14735 whole entry): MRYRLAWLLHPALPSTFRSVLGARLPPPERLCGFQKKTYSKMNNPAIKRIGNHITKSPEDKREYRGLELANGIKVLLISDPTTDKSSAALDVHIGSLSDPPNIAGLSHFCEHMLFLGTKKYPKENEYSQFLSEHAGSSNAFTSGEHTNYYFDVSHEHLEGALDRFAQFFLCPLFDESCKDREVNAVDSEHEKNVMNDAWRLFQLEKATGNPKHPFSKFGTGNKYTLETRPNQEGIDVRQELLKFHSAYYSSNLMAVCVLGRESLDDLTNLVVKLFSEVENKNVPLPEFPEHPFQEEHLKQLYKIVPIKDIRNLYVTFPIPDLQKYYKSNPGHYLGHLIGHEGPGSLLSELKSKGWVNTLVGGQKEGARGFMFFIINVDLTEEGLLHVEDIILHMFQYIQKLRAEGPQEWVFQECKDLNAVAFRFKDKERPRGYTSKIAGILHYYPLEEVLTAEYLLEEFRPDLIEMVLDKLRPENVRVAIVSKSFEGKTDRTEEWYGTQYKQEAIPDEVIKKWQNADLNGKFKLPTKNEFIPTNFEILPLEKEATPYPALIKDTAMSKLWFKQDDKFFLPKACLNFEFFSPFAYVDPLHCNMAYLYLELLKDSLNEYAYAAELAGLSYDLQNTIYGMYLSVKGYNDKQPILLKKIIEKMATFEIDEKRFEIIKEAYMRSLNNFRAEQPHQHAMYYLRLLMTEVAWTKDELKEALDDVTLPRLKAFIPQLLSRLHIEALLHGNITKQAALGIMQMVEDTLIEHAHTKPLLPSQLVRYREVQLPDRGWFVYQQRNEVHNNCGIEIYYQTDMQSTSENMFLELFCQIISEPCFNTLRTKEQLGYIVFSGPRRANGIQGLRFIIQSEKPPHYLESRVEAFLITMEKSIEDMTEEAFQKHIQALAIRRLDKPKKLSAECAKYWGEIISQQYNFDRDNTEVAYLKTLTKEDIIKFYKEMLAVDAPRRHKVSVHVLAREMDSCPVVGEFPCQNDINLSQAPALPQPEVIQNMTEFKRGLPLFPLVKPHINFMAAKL
For test [3] the target is unchanged. The test can be described thus: Activation of IDE (unknown origin) using FRET1 as substrate at 200 uM by SpectraMax M5 multilabel plate reader analysis relative to control. The note with it: filed as activator.
For test [4], the target named is T1, Glucose-6-phosphate 1-dehydrogenase (Homo sapiens, UniProt P11413). The test can be described thus: Activation of G6PD dimerization in lymphocytes isolated from G6PD-deficient patient carrying canton variant expressed in Escherichia coli C43(DE3) cells using G6P as substrate assessed as increase in lysate activity in presence of NADP+ by resazurin dye based fluorescence assay relative to control. It counts as subcellular. The note with it: Lymphocyte, filed as activator. (In general: The colour change of resazurin is a common sign of viable cells or microbes.)
T1 sequence (P11413 whole entry): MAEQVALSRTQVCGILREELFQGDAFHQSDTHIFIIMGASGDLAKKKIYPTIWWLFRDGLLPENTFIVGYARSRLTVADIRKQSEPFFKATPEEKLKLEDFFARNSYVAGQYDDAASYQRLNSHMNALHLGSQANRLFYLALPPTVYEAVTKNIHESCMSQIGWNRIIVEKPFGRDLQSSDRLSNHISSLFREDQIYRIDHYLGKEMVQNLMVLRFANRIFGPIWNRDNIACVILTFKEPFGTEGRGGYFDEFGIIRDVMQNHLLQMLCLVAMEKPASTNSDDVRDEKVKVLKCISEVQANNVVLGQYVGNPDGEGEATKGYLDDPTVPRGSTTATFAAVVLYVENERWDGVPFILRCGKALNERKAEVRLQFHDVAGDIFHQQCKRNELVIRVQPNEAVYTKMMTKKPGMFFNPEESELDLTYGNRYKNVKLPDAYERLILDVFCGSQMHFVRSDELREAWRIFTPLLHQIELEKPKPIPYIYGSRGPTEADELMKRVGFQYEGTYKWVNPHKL

For test [5], the target named is T1, Glucose-6-phosphate 1-dehydrogenase. The test can be described thus: Activation of G6PD (unknown origin) expressed in Escherichia coli C43(DE3) cells using G6P as substrate in presence of NADP+ by resazurin dye-based assay.
A short description of test [6]: Activation of procaspase-3 (unknown origin). Also noted: species or system Homo sapiens.
Test [7] in a line: Activation of sGC (unknown origin). Also noted: species or system Homo sapiens.
Test [8] relates to NCI-H1975. The test can be described thus: Cytotoxicity against d TKI-resistant LUAD human NCI-H1975 cells assessed as inhibition of cell growth incubated for 48 hrs by Beckman Coulter cell counter analysis. It counts as functional, cell-based. The note with it: NCI-H1975, 48 h.
The subject of test [9] is NCI-H1975. The test can be described thus: Antitumor activity against human NCI-H1975 cells xenografted in mouse model assessed as fold decrease in tumor growth. It counts as functional. Background: In xenograft studies the graft and the host belong to different species.
For another test, the system named is NCI-H1650. The test can be described thus: Cytotoxicity against d TKI-resistant LUAD human NCI-H1650 cells assessed as inhibition of cell growth incubated for 48 hrs by Beckman Coulter cell counter analysis. In kind it is functional, cell-based. The note with it: NCI-H1650, 48 h.
In a further test the test system is HCC827. The test can be described thus: Cytotoxicity against TKI-sensitive LUAD immortalized human HCC827 cells assessed as inhibition of cell growth incubated for 48 hrs by Beckman Coulter cell counter analysis. In kind it is functional, cell-based. The note with it: HCC827, 48 h.
The next test relates to NCI-H3255. The test can be described thus: Cytotoxicity against TKI-sensitive LUAD immortalized human NCI-H3255 cells assessed as inhibition of cell growth incubated for 48 hrs by Beckman Coulter cell counter analysis. The note with it: NCI-H3255, 48 h. In kind it is functional, cell-based.
In test [10] the target is Angiotensin-converting enzyme 2 (Homo sapiens, UniProt Q9BYF1). The test can be described thus: Activation of recombinant human ACE2 using McaAPK(Dnp)-OH as substrate preincubated for 15 mins followed by substrate addition spectra max Gemini M5 fluorescence plate reader analysis.
Angiotensin-converting enzyme 2, sequence (Q9BYF1 whole entry): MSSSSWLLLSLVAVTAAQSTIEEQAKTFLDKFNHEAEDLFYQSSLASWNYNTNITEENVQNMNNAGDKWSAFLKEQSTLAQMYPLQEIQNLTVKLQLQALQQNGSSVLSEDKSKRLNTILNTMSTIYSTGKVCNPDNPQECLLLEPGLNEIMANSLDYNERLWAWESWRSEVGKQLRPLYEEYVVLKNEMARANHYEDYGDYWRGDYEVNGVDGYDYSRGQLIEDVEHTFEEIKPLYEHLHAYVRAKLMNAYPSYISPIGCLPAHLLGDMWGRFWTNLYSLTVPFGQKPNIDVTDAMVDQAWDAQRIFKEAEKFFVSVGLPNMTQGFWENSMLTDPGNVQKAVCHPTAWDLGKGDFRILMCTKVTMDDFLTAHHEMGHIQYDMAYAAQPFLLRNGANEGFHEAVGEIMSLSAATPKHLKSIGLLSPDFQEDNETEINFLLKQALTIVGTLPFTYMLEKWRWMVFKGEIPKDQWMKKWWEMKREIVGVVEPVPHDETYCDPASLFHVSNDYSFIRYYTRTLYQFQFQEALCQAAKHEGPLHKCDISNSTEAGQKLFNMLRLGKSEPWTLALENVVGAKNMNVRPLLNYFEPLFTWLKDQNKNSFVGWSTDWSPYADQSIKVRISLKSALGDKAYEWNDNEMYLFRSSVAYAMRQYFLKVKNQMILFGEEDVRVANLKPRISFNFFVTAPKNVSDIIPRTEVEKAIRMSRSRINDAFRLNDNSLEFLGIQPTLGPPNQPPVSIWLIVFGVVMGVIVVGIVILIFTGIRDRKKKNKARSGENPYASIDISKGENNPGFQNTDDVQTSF
The next test has as its system SUM-159-PT. The test can be described thus: cells. To be noted: Homo sapiens, 72 h.
The test system of test [11] is MDA-MB-231. The test can be described thus: cells. The note with it: Homo sapiens, MDA-MB-231, 72 h.
Description: Antiproliferative activity against human MDA-MB-231 cells assessed as inhibition of cell growth incubated for 72 hrs by Hoechst stain-based assay
In test [12] the target is Indoleamine 2,3-dioxygenase 1 (Mus musculus, UniProt P28776). The test can be described thus: Positive allosteric modulation of recombinant mouse IDOL transfected in mouse P1.HTR cells assessed as increase in Kyn production incubated for 24 hrs. In kind it is cell-based.
Indoleamine 2,3-dioxygenase 1 (Mus musculus, UniProt P28776), sequence (P28776 whole entry): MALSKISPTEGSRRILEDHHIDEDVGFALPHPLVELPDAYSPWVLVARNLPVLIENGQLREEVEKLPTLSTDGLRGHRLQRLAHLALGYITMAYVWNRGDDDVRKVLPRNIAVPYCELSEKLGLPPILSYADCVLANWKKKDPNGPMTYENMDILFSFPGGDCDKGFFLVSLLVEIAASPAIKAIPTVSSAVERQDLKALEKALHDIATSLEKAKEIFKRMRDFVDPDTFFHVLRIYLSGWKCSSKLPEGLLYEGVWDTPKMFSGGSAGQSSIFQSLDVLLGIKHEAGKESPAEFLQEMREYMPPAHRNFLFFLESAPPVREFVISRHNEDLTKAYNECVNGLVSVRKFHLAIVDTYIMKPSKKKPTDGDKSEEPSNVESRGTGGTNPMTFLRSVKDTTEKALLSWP
Test [13] concerns the target Indoleamine 2,3-dioxygenase 1 (Homo sapiens, UniProt P14902). The test can be described thus: Positive allosteric modulation of recombinant human IDOL transfected in mouse P1.HTR cells assessed as increase in Kyn production incubated for 24 hrs. In kind it is cell-based.
A further test concerns the target N-glycosylase/DNA lyase (Homo sapiens, UniProt O15527). The test can be described thus: Activation of OGG1 (unknown origin) by fluorescence-based assay.
The species named for another test is Homo sapiens. The test can be described thus: Activation of recombinant sGC (unknown origin) assessed as fold increase.
For test [14], the target named is 3',5'-cyclic-AMP phosphodiesterase 4D (Homo sapiens, UniProt Q08499). The test can be described thus: Activation of PDE4D5 (unknown origin).
3',5'-cyclic-AMP phosphodiesterase 4D, sequence (Q08499 whole entry): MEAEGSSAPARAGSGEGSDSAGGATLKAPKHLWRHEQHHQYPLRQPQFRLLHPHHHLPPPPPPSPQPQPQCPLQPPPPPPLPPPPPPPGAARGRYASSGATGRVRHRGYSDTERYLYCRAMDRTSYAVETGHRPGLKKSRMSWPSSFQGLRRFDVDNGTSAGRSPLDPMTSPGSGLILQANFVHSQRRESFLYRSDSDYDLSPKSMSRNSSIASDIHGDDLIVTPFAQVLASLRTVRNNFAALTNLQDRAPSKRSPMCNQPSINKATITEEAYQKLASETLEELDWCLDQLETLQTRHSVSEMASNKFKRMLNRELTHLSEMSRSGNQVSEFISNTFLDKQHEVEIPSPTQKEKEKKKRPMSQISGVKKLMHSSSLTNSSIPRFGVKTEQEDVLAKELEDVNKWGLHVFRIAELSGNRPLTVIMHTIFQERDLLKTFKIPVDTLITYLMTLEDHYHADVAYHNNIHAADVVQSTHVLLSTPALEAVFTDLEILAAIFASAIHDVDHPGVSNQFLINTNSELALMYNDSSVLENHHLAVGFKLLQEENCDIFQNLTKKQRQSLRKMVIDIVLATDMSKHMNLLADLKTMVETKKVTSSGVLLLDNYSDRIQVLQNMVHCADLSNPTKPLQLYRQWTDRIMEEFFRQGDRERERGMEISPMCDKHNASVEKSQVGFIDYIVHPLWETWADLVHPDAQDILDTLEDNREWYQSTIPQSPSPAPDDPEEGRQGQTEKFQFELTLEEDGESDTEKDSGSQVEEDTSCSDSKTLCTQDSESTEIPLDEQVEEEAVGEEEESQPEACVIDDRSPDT
The next test has as its system A549. The test can be described thus: Anti-oxidative activity in human A549 cells assessed as reduction in cell injury relative to control. It counts as functional. Further details: scale not given: the % may be the effect or the level left.
The nature of test [15]: Activation of recombinant human procaspase-3 using Ac-DEVD-pNA as substrate preincubated for 12 hrs followed by substrate addition by absorbance based assay.
Test [16] has as its target T2, Carnitine O-palmitoyltransferase 1, liver isoform (Homo sapiens) (UniProt P50416).
T2 sequence (whole entry): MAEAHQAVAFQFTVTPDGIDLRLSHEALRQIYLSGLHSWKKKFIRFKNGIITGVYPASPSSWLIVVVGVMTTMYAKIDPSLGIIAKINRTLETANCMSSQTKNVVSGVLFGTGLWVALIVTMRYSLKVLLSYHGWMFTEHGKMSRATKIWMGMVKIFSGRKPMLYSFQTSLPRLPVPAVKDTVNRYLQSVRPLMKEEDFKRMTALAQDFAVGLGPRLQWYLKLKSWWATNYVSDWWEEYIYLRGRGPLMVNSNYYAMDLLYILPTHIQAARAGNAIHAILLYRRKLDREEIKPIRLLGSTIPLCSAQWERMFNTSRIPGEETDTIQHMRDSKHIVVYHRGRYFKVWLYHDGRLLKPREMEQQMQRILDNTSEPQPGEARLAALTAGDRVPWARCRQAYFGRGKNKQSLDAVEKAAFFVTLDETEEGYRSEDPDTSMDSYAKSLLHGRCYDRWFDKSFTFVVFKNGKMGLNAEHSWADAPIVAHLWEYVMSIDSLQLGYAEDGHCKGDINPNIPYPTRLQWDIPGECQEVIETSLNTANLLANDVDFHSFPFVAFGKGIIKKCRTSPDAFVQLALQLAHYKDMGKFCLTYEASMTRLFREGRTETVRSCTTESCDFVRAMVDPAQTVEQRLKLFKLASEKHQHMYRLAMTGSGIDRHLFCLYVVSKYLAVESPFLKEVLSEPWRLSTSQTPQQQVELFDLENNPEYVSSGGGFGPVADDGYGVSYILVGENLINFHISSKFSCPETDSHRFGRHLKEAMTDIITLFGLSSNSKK
The test can be described thus: Activation of CPT-1 in human HeLa cells assessed as reduction in free fatty acid at 100 uM incubated for 10 mins relative to control. It counts as cell-based. Also noted: scale not given: the % may be the effect or the level left. To be noted: filed as activator.

Test [17] relates to Mus musculus. The test can be described thus: Anti-obesity activity against diet-induced obese mouse expressing CPT-1 H327E mutant assessed as reduction in body weight at 400 mg/kg, IG administered for 12 week. It counts as functional. To be noted: time 12 weeks.
The test system of test [18] is Mus musculus. The test can be described thus: Anti-obesity activity against diet-induced obese mouse expressing CPT-1 H327E mutant assessed as reduction in body fat percentage at 400 mg/kg, IG administered for 12 week relative to control. It counts as functional. To be noted: time 12 weeks. Also noted: scale not given: the % may be the effect or the level left.
Test [19] has as its target T2, Carnitine O-palmitoyltransferase 1, liver isoform (Homo sapiens). The test can be described thus: Activation of CPT-1 in human HeLa cells assessed as fold increase at 100 uM incubated for 10 mins relative to control. It counts as cell-based. To be noted: filed as activator.
Test [20] can be described thus: Protection against rotenone-induced stress in human Induced pluripotent stem cell-derived neuron cells relative to control. It counts as functional.
In test [21] the target is Insulin-degrading enzyme (Homo sapiens) (UniProt P14735). The test can be described thus: Activation of IDE (unknown origin) using FRET1 as substrate at 6.25 uM by SpectraMax M5 multilabel plate reader analysis relative to control. To be noted: filed as activator.

Each structure is given as a SMILES string.

N-glycosylase/DNA lyase, sequence (O15527 whole entry): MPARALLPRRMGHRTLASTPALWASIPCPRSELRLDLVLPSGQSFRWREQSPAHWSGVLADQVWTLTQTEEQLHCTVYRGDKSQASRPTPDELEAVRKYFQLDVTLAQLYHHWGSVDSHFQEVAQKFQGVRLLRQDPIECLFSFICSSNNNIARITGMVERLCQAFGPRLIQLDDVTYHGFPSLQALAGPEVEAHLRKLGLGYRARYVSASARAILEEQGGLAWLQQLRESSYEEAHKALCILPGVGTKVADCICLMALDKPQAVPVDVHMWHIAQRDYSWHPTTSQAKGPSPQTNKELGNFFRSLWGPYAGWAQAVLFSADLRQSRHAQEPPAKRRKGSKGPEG
Indoleamine 2,3-dioxygenase 1 (Homo sapiens, UniProt P14902), sequence (P14902 whole entry): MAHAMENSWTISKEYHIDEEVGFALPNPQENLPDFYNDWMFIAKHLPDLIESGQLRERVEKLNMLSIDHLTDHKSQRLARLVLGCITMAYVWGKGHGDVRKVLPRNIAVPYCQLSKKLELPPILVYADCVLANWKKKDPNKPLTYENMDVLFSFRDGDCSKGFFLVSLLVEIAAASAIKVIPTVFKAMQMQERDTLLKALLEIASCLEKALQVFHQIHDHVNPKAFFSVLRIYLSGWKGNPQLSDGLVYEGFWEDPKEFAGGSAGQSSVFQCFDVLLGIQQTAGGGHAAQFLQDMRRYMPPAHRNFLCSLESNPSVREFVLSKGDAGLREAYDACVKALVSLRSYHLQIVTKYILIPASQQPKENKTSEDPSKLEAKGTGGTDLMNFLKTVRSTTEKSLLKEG
Description for SUM-159-PT: Antiproliferative activity against human SUM159 cells assessed as inhibition of cell growth incubated for 72 hrs by Hoechst stain-based assay

`CCCCCCCCc1ccc(CCC(N)(CO)CO)cc1` [FINGOLIMOD]: the IC50 in the test on BT-474 worked out at 8.5 µM; in the test with MDA-MB-231 [1] it was 2.9 µM.

Turning to `O=C1CC(c2ccc(Cl)cc2)CC(=O)C1/C=N/OCc1nnsc1Cl` (stereo unspecified), the Activity came out at 1000% in [2] and 500% in test [3].

Regarding `c1ccc2c(CCNCCSSCCNCCc3c[nH]c4ccccc34)c[nH]c2c1`, the Activity in test [4] is 78%. In [5], the EC50 worked out at 0.8 µM.

In the case of `O=C(Nc1cccc(-c2cn3ccccc3n2)c1)c1cc2cccc(O)c2oc1=O`, the concentration giving a half-maximal response (EC50) in test [6] was determined as 1.3 µM.

In test [7], `Fc1ccccc1Cc1nc(-c2nc(C(F)(F)F)n[nH]2)cn2ccnc12` [ZAGOCIGUAT] displayed a concentration for a half-maximal effect (EC50) of 0.066 µM.

Turning to `O=S(=O)(N[C@@H]1CCCC(N2c3ccccc3Oc3ccccc32)[C@H]1O)c1ccc(OC(F)(F)F)cc1` (stereo partly specified), the IC50 with NCI-H1975 [8] came out at 10.6 µM; with NCI-H1650, 10.6 µM; with HCC827, 14.3 µM; in the test on NCI-H3255 it was 12.4 µM. The “fold change (FC)” value in the test on NCI-H1975 [9] was determined as 2.

For the molecule `O=C1OC2(c3ccc(O)cc3Oc3cc(O)ccc32)c2ccccc21` [FLUORESCEIN], the EC50 in test [10] stood at 19.5 µM.

Consider `N=C(N)c1ccc(/N=N/Nc2ccc(C(=N)N)cc2)cc1` [DIMINAZENE], for which the concentration giving a half-maximal response (EC50) in test [10] is 8.04 µM.

With `N#Cc1cccc(CN2CCc3ncn(Cc4ccc(Cl)cc4)c(=O)c3C2)c1`, the IC50 with SUM-159-PT came out at 0.012 µM; with MDA-MB-231 [11] it was 0.003 µM.

On to `CC(=O)NCCc1c[nH]c2ccc(O)cc12` [ACETYLSEROTONIN], for which the values for the EC50 in test [12] and in test [13] were 19.6 µM and 20.9 µM, respectively.

`Cc1cc(N[C@@H](C)C(=O)Nc2ccccc2)nc(Nc2ccccc2)n1` came in with a concentration giving a half-maximal response (EC50) at N-glycosylase/DNA lyase of 4.1 µM.

Regarding `COC(=O)N(C)c1c(N)nc(-c2nn(Cc3ccccc3F)c3ncccc23)nc1N`, the fold change (FC) in the test listed under Homo sapiens was less than 73.

In turn, `CCc1nc(-c2ccc(Cl)c(F)c2)nn1CC(=O)NCc1cc(Cl)cc(Cl)c1` had an EC50 in [14] of 1.2 µM.

For the molecule `CNc1nnc(C)c2c1cc(-c1ccc(F)cc1)n2C`, the Activity with A549 was 200%. In addition, a half-maximal response at N-glycosylase/DNA lyase (EC50) required 5.1 µM.

In the case of `O=C(CN1CCN(Cc2nc(-c3ccc(COc4ccc(F)cc4)cc3)no2)CC1)N/N=C/c1ccc(OCc2csc(Cc3ccc4c(c3)OCO4)n2)cc1O`, in [15], the EC50 came to 0.95 µM.

For `OC(Cn1ccnc1)(c1ccc(Cl)cc1Cl)C1CCCCC1` (stereo unspecified), in the test on A549, the Activity amounted to 650%. For the same molecule, on N-glycosylase/DNA lyase, a half-maximal response (EC50) required 5 µM.

In [7], `O=C(Nc1ccc(S(=O)(=O)N2CCOCC2)cc1)c1cc(Cl)ccc1NS(=O)(=O)c1ccc(Cl)s1` displayed an EC50 of 0.5 µM.

For `O=C(O)[C@H]1O[C@@H](Oc2cc3oc(-c4ccccc4)cc(=O)c3c(O)c2O)[C@H](O)[C@@H](O)[C@@H]1O` [BAICALIN], the Activity was 50% in test [16], -12.5 g in the test on Mus musculus [17] and -0.085% with Mus musculus [18]. Besides, the fold change (FC) in test [19] came out at 7.

The molecule `c1ccc2c(NC3CCCCC3)nc(C3CC3)nc2c1` had a concentration for a half-maximal effect (EC50) on N-glycosylase/DNA lyase of 0.78 µM.

In the case of `O=C(c1cc(O)c(O)c(O)c1)c1ccc(O)c(O)c1O` [EXIFONE], the Activity in test [20] is on record as 80%.

Consider `Cc1cnc(N2CCN3CCCC3C2)nc1Oc1ccc(-n2ccnc2)cc1` (stereo unspecified), for which, at N-glycosylase/DNA lyase, the response was half-maximal at 4.6 µM (EC50).

Turning to `O=C(Nc1cccc(Cl)c1)N1CCC(c2cc(-c3ccco3)[nH]n2)CC1`, the Activity in test [21] came out at 60%.

The IC50 is the midpoint of a concentration-inhibition curve. In general, EC50 refers to the concentration needed to bring the measured effect to its halfway point.
